Assay: Two-week non-GLP toxicology in mice (clinical signs, body weight, body weight gain, food consumption, hematology, clinical chemistry, organ weights, histopathology)
[1] = female mice, 50 mg/kg:BID oral, 2 weeks, mean
[2] = male mice, 25 mg/kg/BID oral, 2 weeks, mean
[3] = male mice, 50 mg/kg/BID oral, 2 weeks, mean
[4] = oral, twice daily, 25 and 50 mg/kg, 2 weeks, mice

Procedure: Each group contained 6 mice. The animals were analyzed throughout the study, and blood and tissues were analyzed at the end of the study.

In the case of `COC(=O)C1=CNC=C(C(=O)OC)C1c1ccc(F)c(C(F)(F)F)c1` [Compound 103, Dimethyl 4-(4-fluoro-3-(trifluoromethyl)phenyl)-1,4-dihydropyridine-3,5-dicarboxylate], the “Body weight gain (%)” value (female mice, 50 mg/kg/BID oral, treatment day 1 to 14, mean) is reported as 5.87%, the “Organ weights relative to body weight (%), Adrenals” value [1] is reported as 0.035% and the “Organ weights relative to body weight (%), Brain” value [1] is reported as 2.175%. The “Organ weights relative to body weight (%), Heart” value [1] was 0.532%, the “Organ weights relative to body weight (%), Kidneys” value [1] was 1.375% and the “Organ weights relative to body weight (%), Liver” value [1] was 7.356%. For the same molecule, the “Organ weights relative to body weight (%), Ovaries” value [1] was 0.066%, the “Organ weights relative to body weight (%), Spleen” value [1] was 0.490% and the “Organ weights relative to body weight (%), Thymus” value [1] was 0.220%. For the same molecule, the “Organ weights relative to body weight (%), U” value [1] was 0.277%, the clinical chemistry assessment (male and female mice, 25 and 50 mg/kg BID, 2 weeks) was “no significant toxicological change” and the ALB [2] was 2.66. The ALP [2] was 207.96, the ALT [2] was 42.36 and the AST [2] was 79.38. For the same molecule, the BUN [2] was 19.73, the Basophils [2] was 0.00 and the CREA [2] was 0.14. The Eosinophils [2] was 0.67, the GLU [2] was 157.88 mg/dL and the HCT [2] was 31.43%. It also gave an HGB [2] of 15.37 g/dL, an LDLC [2] of 10.02 mg/dL and a Lymphocytes [2] of 82.33. The MCH [2] was 23.27 pg, the MCHC [2] was 48.87 g/dL and the MCV [2] was 47.70 fL. For the same molecule, the Monosytes [2] was 1.33, the Neutrophils [2] was 15.67 and the “Organ weights relative to body weight (%), Adrenals” value [2] was 0.024%. For the same molecule, the “Organ weights relative to body weight (%), Brain” value [2] was 2.065%, the “Organ weights relative to body weight (%), Epididy” value [2] was 0.333% and the “Organ weights relative to body weight (%), Heart” value [2] was 0.500%. For the same molecule, the “Organ weights relative to body weight (%), Kidneys” value [2] was 1.490%, the “Organ weights relative to body weight (%), Liver” value [2] was 7.093% and the “Organ weights relative to body weight (%), Spleen” value [2] was 0.351%. The “Organ weights relative to body weight (%), Testes” value [2] was 0.582%, the “Organ weights relative to body weight (%), Thy” value [2] was 0.136% and the PLT [2] was 591.33 10^3/μl. The RBC [2] was 6.59, the “Reticuloxyte Count” value [2] was 2.90 and the TBIL [2] was 0.09*↓ mg/dL. For the same molecule, the TGL [2] was 73.46 mg/dL, the TP [2] was 4.13*↑ g/dL and the Urea [2] was 42.29 mg/dL. For the same molecule, the WBC [2] was 3.70*↓ 10^3/μl, the “Food consumption, Average Feed Intake/Animal” value (male mice, 25 mg/kg/BID oral, treatment day 1 to 4) was 9.9 g/animal and the “Body weight gain (%)” value (male mice, 25 mg/kg/BID oral, treatment day 1 to 4, mean) was 3.45%. The “Food consumption, Average Feed Intake/Animal” value (male mice, 25 mg/kg/BID oral, treatment day 1 to 8) was 14.8 g/animal, the “Body weight gain (%)” value (male mice, 25 mg/kg/BID oral, treatment day 1 to 8, mean) was 5.68% and the “Food consumption, Average Feed Intake/Animal” value (male mice, 25 mg/kg/BID oral, treatment day 1 to 11) was 9.5 g/animal. The “Body weight gain (%)” value (male mice, 25 mg/kg/BID oral, treatment day 1 to 11, mean) was 5.86%, the “Food consumption, Average Feed Intake/Animal” value (male mice, 25 mg/kg/BID oral, treatment day 1 to 14) was 10.4 g/animal and the “Body weight gain (%)” value (male mice, 25 mg/kg/BID oral, treatment day 1 to 14, mean) was 7.91%. It also gave an ALB [3] of 2.43, an ALP [3] of 180.63 and an ALT [3] of 59.72. It also gave an AST [3] of 88.76, a BUN [3] of 22.97 and a Basophils [3] of 0.00. For the same molecule, the CREA [3] was 0.12*↓, the Eosinophils [3] was 0.00 and the GLU [3] was 152.77 mg/dL. It also gave an HCT [3] of 30.70%, an HGB [3] of 13.73 g/dL and an LDLC [3] of 9.84 mg/dL. It also gave a Lymphocytes [3] of 78.00, an MCH [3] of 21.70 pg and an MCHC [3] of 44.77 g/dL. For the same molecule, the MCV [3] was 48.40*↑ fL, the Monosytes [3] was 2.00 and the Neutrophils [3] was 20.00. For the same molecule, the “Organ weights relative to body weight (%), Adrenals” value [3] was 0.030%, the “Organ weights relative to body weight (%), Brain” value [3] was 2.017% and the “Organ weights relative to body weight (%), Epididy” value [3] was 0.298%. For the same molecule, the “Organ weights relative to body weight (%), Heart” value [3] was 0.541%, the “Organ weights relative to body weight (%), Kidneys” value [3] was 1.467% and the “Organ weights relative to body weight (%), Liver” value [3] was 7.014%. The “Organ weights relative to body weight (%), Spleen” value [3] was 0.461%, the “Organ weights relative to body weight (%), Testes” value [3] was 0.773% and the “Organ weights relative to body weight (%), Thy” value [3] was 0.116%. The PLT [3] was 661.00 10^3/μl, the RBC [3] was 6.34 and the “Reticuloxyte Count” value [3] was 2.67. For the same molecule, the TBIL [3] was 0.08*↓ mg/dL, the TGL [3] was 84.42 mg/dL and the TP [3] was 4.19*↑ g/dL. For the same molecule, the Urea [3] was 47.30 mg/dL, the WBC [3] was 2.27*↓ 10^3/μl and the “Food consumption, Average Feed Intake/Animal” value (male mice, 50 mg/kg/BID oral, treatment day 1 to 4) was 8.7 g/animal. For the same molecule, the “Body weight gain (%)” value (male mice, 50 mg/kg/BID oral, treatment day 1 to 4, mean) was −0.49*1%, the “Food consumption, Average Feed Intake/Animal” value (male mice, 50 mg/kg/BID oral, treatment day 1 to 8) was 14.4 g/animal and the “Body weight gain (%)” value (male mice, 50 mg/kg/BID oral, treatment day 1 to 8, mean) was 3.28%. For the same molecule, the “Food consumption, Average Feed Intake/Animal” value (male mice, 50 mg/kg/BID oral, treatment day 1 to 11) was 9.4 g/animal, the “Body weight gain (%)” value (male mice, 50 mg/kg/BID oral, treatment day 1 to 11, mean) was 3.60% and the “Food consumption, Average Feed Intake/Animal” value (male mice, 50 mg/kg/BID oral, treatment day 1 to 14) was 11.0 g/animal. The “Body weight gain (%)” value (male mice, 50 mg/kg/BID oral, treatment day 1 to 14, mean) was 6.21%, the “body weight and body weight gain” value [4] was “did not change” and the clinical signs [4] was “No abnormal clinical signs were detected”. For the same molecule, the survival [4] was “all animals survived to study termination” and the tolerable dose (twice daily for 14 consecutive days, oral, C57BL/6 mice) was greater than 50 mg/kg/BID.
